Laboratory results from US20190282541A1, “USE OF ERIBULIN AND HISTONE DEACETYLASE INHIBITORS IN THE TREATMENT OF CANCER” (EISAI R&D MANAGEMENT CO., LTD., priority 2016, published 2019).
Read-outs that look alike come from different tables or passages of the source.

What was measured:
Format in all cases: cell-based
[1] = test system: T-47D human breast cancer cells; test: Single agent growth inhibition (Cell Titer-Glo proliferation); settings: T47D, 72 hours
Experimental: (§1) The growth inhibitory activities of two test agents, eribulin and entinostat, were determined alone and in combination against 12 human breast cancer cell lines (Table 1). The human breast tumor cell lines were selected based on their profile characteristics of being either human epidermal growth factor receptor 2 negative (Her2') and estrogen receptor positive (ER^+) or Triple Negative (Her2^-, ER^-, and progesterone receptor negative [PR^-]). Activities of individual agents were determined by curve-fitting the concentration of agent that inhibits cell growth by 50% compared to the control cells in a four parameter-logistic equation, whereas agent combinations were determined by the method of (Chou and […] Advances in Enzyme Regulation 22:27-55, 1984), and analyzed with CalcuSyn software. Fa, the fraction of affected drug targets at a given drug concentration, was calculated from the fractional decrease. Each agent was tested individually to determine the median-effect dose, Dm, (or EC50, the 50% effect concentration). For combination treatments, drug solutions were mixed at ratios providing approximately equipotent concentrations based upon relative Dm, and this mixture was serially diluted to yield test concentrations. The Combination Index (CI), computed from ratios of the concentrations of mixed and unmixed drugs that produce the same Fa, indicates whether inhibition is additive, synergistic, or antagonistic. In whole-cell assays, inhibitor interactions are complex (mixed), rather than mutually exclusive (purely competitive) or nonexclusive (purely non-competitive), CI values for both types of inhibition are reported to define the range of possible values. […] Finally, in Experiment 3, we determined the antiproliferative activity of the study agents in combination against the panel of human tumor cell lines. […] We further analyzed quadruplicate samples over a seven point dose response range. MCF-7 human breast cancer cells were cultured in RPMI 1640 medium supplemented with 10% fetal bovine serum (FBS), 2 mM glutamine, 10 mM 4-(2-hydroxyethyl)-1-piperazineethanesulfonic acid (HEPES), 0.075% sodium bicarbonate, 100 units/mL sodium penicillin G, 100 μg/mL streptomycin sulfate and 25 μg/mL gentamicin. T-47D human breast cancer cells were cultured in RPMI 1640 medium supplemented with 10% FES. 4.5 g/L glucose. 2 mM glutamine. 10 mM HEPES, 0.2 units/mL Insulin, 1 mM sodium pyruvate, 100 units/mL sodium penicillin G, 100 streptomycin sulfate and 25 μg/mL gentamicin, ZR-75-1 human breast cancer cells were cultured in RPMI 1640 medium supplemented with 10% FBS, 4.5 g/L. glucose, 2 mM glutamine, 10 […] HEPES, 1 mM sodium pyruvate, 100 units/mL sodium penicillin G, 100 μg/mL streptomycin sulfate and 25 μg/mL gentamicin. […] HCC70 human breast cancer cells were cultured in RPMI1640 medium supplemented with 10% FBS, 2 mM glutamine, 4.5 g/L glucose, 10 mM HEPES, 0.075% sodium bicarbonate, 1 mM sodium pyruvate, 100 units/mL sodium penicillin 0, 100 μg/mL streptomycin sulfate and 25 μg/mL gentamicin. […] The tumor cells were cultured in tissue culture flasks in a humidified incubator at 37° C., in an atmosphere of 5% CO2 and 95% air; except for the MDA-MB-134-VI, MDA-MB-175-VII, MDA-MB-415, and MDA-MB-436, these cells were cultured at 37° C. in 100% air and no additional CO2. The selected human tumor cells were seeded at 2,000-5,000 cells/well in a clear polystyrene 96-well microculture plate (Corning® Costar® 96-well flat bottom plate, Cat. No. 3997) in a total volume of 90 μL per well. After 24 hours of incubation in a humidified incubator at 37° C. with 5% CO2 and 95% air (except for the MDA-MB-134-VI, MDA-MB-175-VII, MDA-MB-415, and MDA-MB-436, these cells were cultured at 37° C. in 100% air, no additional CO2), 10 μL of the 10× drug prep was added. […]

[2] = test system: HCC70 human breast cancer cells; test: as above; settings: 72 hours
Experimental: as §1

[3] = test system: MDA-MB-436 human adenocarcinoma derived cancer cells; test: as above; settings: 144 hours
Experimental: as §1

[4] = test system: BT-549 human breast cancer cells; test: as above; settings: 72 hours
Experimental: as §1

[5] = test system: MDA-MB-134VI human breast cancer cells; test: as above; settings: 144 hours
Experimental: as §1

[6] = test system: MDA-MB-175VII human breast cancer cells; test: as above; settings: 144 hours
Experimental: as §1

[7] = test system: HCC1806 human breast cancer cells; test: as above; settings: 72 hours
Experimental: as §1

[8] = test system: MCF-7 human breast cancer cells; test: as above; settings: 72 hours
Experimental: as §1

[9] = test system: MDA-MB-415 human breast cancer cells; test: as above; settings: 144 hours
Experimental: as §1

[10] = test system: Hs578t human breast cancer cells; test: as above; settings: Hs-578T, 72 hours
Experimental: as §1

[11] = test system: ZR-75-1 human breast cancer cells; test: as above; settings: Experiment 2, narrow concentration range, 72 hours
Experimental: as §1

[12] = test system: MDA-MB-231 human breast cancer cells; test: as above; settings: 72 hours
Experimental: as §1

[13] = test system: panel of 12 human breast cancer cell lines; test: Single agent inhibitory activity across the cell line panel; settings: all 12 cell lines, Experiments 1 and 2
Experimental: The growth inhibitory activities of two test agents, eribulin and entinostat, were determined alone and in combination against 12 human breast cancer cell lines (Table 1). The human breast tumor cell lines were selected based on their profile characteristics of being either human epidermal growth factor receptor 2 negative (Her2') and estrogen receptor positive (ER^+) or Triple Negative (Her2^-, ER^-, and progesterone receptor negative [PR^-]). Activities of individual agents were determined by curve-fitting the concentration of agent that inhibits cell growth by 50% compared to the control cells in a four parameter-logistic equation, whereas agent combinations were determined by the method of (Chou and […] Advances in Enzyme Regulation 22:27-55, 1984), and analyzed with CalcuSyn software. Fa, the fraction of affected drug targets at a given drug concentration, was calculated from the fractional decrease. […] Finally, in Experiment 3, we determined the antiproliferative activity of the study agents in combination against the panel of human tumor cell lines. […] We further analyzed quadruplicate samples over a seven point dose response range. […] The medium/Cell Titer-Glo® reagent was transferred to a white polystyrene 96-well microculture plate (Corning® Costar® 96-well flat bottom plate, Cat. No. 3917) before determining luminescence on the Tecan GENios microplate. […]

[14] = Experiment 1, wide concentration range, read-out: Wide range IC50
[15] = Experiment 2, narrow concentration range, read-out: Narrow range IC50
[16] = MCF7, Experiment 1, wide concentration range, read-out: Wide range IC50
[17] = MCF7, Experiment 2, narrow concentration range, read-out: Narrow range IC50

IC50 [1, 15]	IC50 [3, 14]	IC50 [3, 15]	IC50 [4, 14]	IC50 [4, 15]	IC50 [5, 14]	IC50 [5, 15]	IC50 [6, 14]	IC50 [6, 15]	IC50 [7, 14]	IC50 [7, 15]	IC50 [8, 16]	IC50 [8, 17]	IC50 [9, 14]	IC50 [9, 15]	IC50 [10, 14]	IC50 [10, 15]	IC50 [12, 14]	IC50 [12, 15]	SMILES	IC50 [2, 14]	also measured
1.78 µM	0.81 µM	1.37 µM	1.25 µM	1.5 µM	0.39 µM	0.8 µM	0.21 µM	1.17 µM	0.55 µM	1.22 µM	0.54 µM	0.57 µM	0.0921 µM	0.14 µM	1.1 µM	1.4 µM	0.61 µM	0.94 µM	Nc1ccccc1NC(=O)c1ccc(CNC(=O)OCc2cccnc2)cc1 [entinostat, pyridin-3-yl methyl N-[[4-[(2-aminophenyl)carbarnoyl]phenyl]methyl carbamate]	1.45 µM	IC50 [1, 14]: 1.6 µM; IC50 [2, 15]: 1.11 µM; IC50 [11]: 4.95 µM
0.00115 µM	0.00282 µM	0.0032 µM	0.00023 µM	0.00039 µM	0.00062 µM	0.00088 µM	0.00055 µM	0.00109 µM	0.00025 µM	0.0003 µM	0.00022 µM	0.00037 µM	0.00064 µM	0.00057 µM	0.00039 µM	0.00067 µM	0.00026 µM	0.00052 µM	C=C1C[C@@H]2CC[C@@]34C[C@H]5O[C@H]6[C@@H](O3)[C@H]3O[C@H](CC[C@@H]3O[C@H]6[C@H]5O4)CC(=O)C[C@@H]3[C@@H](OC)[C@@H](C[C@H](O)CN)O[C@H]3C[C@H]3O[C@@H](CC[C@@H]1O2)C[C@@H](C)C3=C [eribulin]	0.00035 µM	Relative potency of single agents [13]: more potent than entinostat in all cell lines
